For assay [1], the system named is Staphylococcus aureus NRS128. Briefly: MIC determination using agar dilution method. Format: cell-based. To be noted: MSSA / NRS 128, read-out: MIC (μg/ml) NRS128. The protocol: (§1) Antibacterial activity was determined on strains from Mutabilis internal collection.
(§2) This protocol is compliant with Clinical Laboratory Standards Institute (CLSI) methodology as described in M7-A7 document of the CLSI. The compound to be tested is incorporated into Mueller-Hinton Agar medium (Fluka, Reference 70191) at one concentration per plate according to a geometric series of reason 2. Plates are inoculated with mid-log phase bacteria (inoculum=1×10^4 cfu/spot) and incubated overnight at 35° C. […] All manipulations, but compound handling (in pure DMSO), are performed under sterile conditions. The final DMSO concentration of DMSO in the plates is 2%. Vancomycin is used as reference.

Assay [2] deals with Staphylococcus aureus NRS262. Briefly: MIC determination using agar dilution method. The note with it: MSSA / NRS 262, read-out: MIC (μg/ml) NRS262. Format: cell-based. How it is done: as §1, §2
Assay [3] concerns Staphylococcus aureus strain ATCC 29213. Briefly: In vivo antibacterial activity, thigh infection model in neutropenic Swiss mice. The note with it: 100 mg/kg orally, 1.5 h after infection, FIG. 1.
The target of assay [4] is recombinant S. aureus FabI enzyme (Staphylococcus aureus (strain MRSA252), UniProt Q6GI75). Briefly: FabI inhibition, fluorescence based assay. Type of assay: biochemical. To be noted: in vitro. In a few lines: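 2 nM FabI preincubated 60 min at RT with compound, 40 μM NADPH and 10 μM NADP+ in 50 mM ADA pH 6.5, 1 mM DTT, 0.006% Triton X-100, 50 mM NaCl; started with 100 μM t-o-NAC. NADPH fluorescence (ex 360/em 520 nm) read at 0 and ~50 min. IC50 fitted to Langmuir model.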

Assay [5] relates to C. albicans (ATCC 90028). Briefly: MIC determination using susceptibility method (broth microdilution). Type of assay: cell-based. The note with it: Candida albicans, ATCC90028, read-out: MIC (μg/ml) C. albicans (ATCC 90028). How it is done: (§3) Minimum inhibitory concentrations (MICs) were determined by broth microdilution according to CLSI guidelines (CLSI, M100-20^1, M7-A8^2, M27-A3^3). The compounds were tested in the range from […]. Colonies were taken directly from a second-pass culture plate and prepared to a suspension equivalent to the 0.5 McFarland standard using normal saline. […] The panels were incubated at 35° C. for 16 to 20 hours before reading the MIC endpoints. The compounds of Examples 12, 29, 59, 63 and 66-71 were dissolved in DMSO to make the initial solutions of 5120 μg/ml. These solutions were diluted 1:10 in sterile water to a stock solution of 512 μg/ml. The stock solutions were further diluted into the appropriate broth medium for the sequential dilutions used in the broth microdilution panels. S. pneumoniae was tested in Mueller Hinton (MH) broth with 3% lysed horse blood and C. albicans was tested in RPMI-1640 medium. All other organisms were tested in MH broth.
(In general: Dilution methods test growth across graded concentrations, often in twofold steps.)

The test system of assay [6] is E. faecalis (ATCC 29212). Described as above. Type of assay: cell-based. To be noted: Enterococcus faecalis, ATCC29212, read-out: MIC (μg/ml) E. faecalis (ATCC 29212). How it is done: as §3
For assay [7], the system named is E. coli (ATCC 25922). Described as above. Type of assay: cell-based. The note with it: Escherichia coli, ATCC25922, read-out: MIC (μg/ml) E. coli (ATCC 25922). The protocol:
as §3

For assay [8], the system named is S. pneumoniae (ATCC 49619). The description is as above. Format: cell-based. To be noted: Streptococcus pneumoniae, ATCC49619, read-out: MIC (μg/ml) S. pneumoniae (ATCC 49619). How it is done:
as §3

Assay [9] deals with S. aureus ATCC 29213. Described as above. Type of assay: cell-based. To be noted: Staphylococcus aureus, ATCC29213, read-out: MIC (μg/ml) S. aureus ATCC 29213. The protocol: as §3
Assay [10] deals with MSSA (IHMA #555189). The assay is described as above. Format: cell-based. To be noted: Staphylococcus aureus, read-out: MIC (μg/ml) MSSA (IHMA #555189). The protocol: as §3
Assay [11] has as its system MRSA (IHMA #510059). The description is as above. Type of assay: cell-based. To be noted: Staphylococcus aureus, read-out: MIC (μg/ml) MRSA (IHMA #510059). The protocol:
as §3

Assay [12] deals with S. aureus CIP 54.146. Nature of the assay: MIC determination using broth microdilution method. Type of assay: cell-based. To be noted: Staphylococcus aureus, CIP54 / MSSA, read-out: MIC (μg/ml) S. aureus CIP 54.146. How it is done:
The compounds of the invention are useful antibacterial agents having a selective spectrum of activity in vitro against bacterial strains relying on FabI and related targets. […] The activity is presented as Minimum Inhibitory Concentration (MIC) expressed in μg/ml and was determined using broth microdilution or Agar dilution methods.
as §1
This protocol is compliant with Clinical Laboratory Standards Institute (CLSI) methodology as described in M7-A7 document of the CLSI. The compound to be tested is diluted according to a geometric series of reason 2 in pure DMSO. Dilutions are transferred in sterile polystyrene microplates, followed by mid-log phase bacteria in cation-adjusted Muller-Hinton broth (ca-MHB, Fluka, Reference 90922) with a final inoculum of 5×10^5 cfu/ml. Microplates are incubated overnight at 35° C. MIC is defined as the lowest concentration of antimicrobial agent that completely prevents visible bacterial growth. All manipulations, but compound handling (in pure DMSO), are performed under sterile conditions. The final concentration of DMSO in the plates is 2%.

In brackets after ≈: the same amount, converted by molar mass. Some results are limits rather than exact numbers.

The term IC50 denotes the concentration that gives 50% inhibition. On to `O=C1CCc2cc(/C=C/C(=O)N3CC(OCc4cccs4)C3)cnc2N1` [Example 12, 6-{(1E)-3-Oxo-3-[3-(2-thienylmethoxy)azetidin-1-yl]prop-1-en-1-yl}-3,4-dihydro-1,8-naphthyridin-2(1H)-one], for which the MIC in [1] was 1 µg/mL (≈ 2.71 µM); in assay [2], 4 µg/mL (≈ 10.8 µM); in assay [5], above 128 µg/mL; in assay [6] it was above 128 µg/mL; in [7], above 128 µg/mL; in assay [8], above 128 µg/mL. Further, the MIC in [9] came to 1 µg/mL (≈ 2.71 µM); in [10], 1 µg/mL (≈ 2.71 µM); in [11], 1 µg/mL (≈ 2.71 µM); in assay [12], 4 µg/mL (≈ 10.8 µM). Besides, the “in vivo antibacterial activity (bacterial burden in the thigh of infected mice)” value in [3] is reported as “able to protect mice against thigh dissemination”. The IC50 in assay [4] came to 13 nM.

(Values after US8846711B2, “Heterocyclic acrylamides and their use as pharmaceuticals” (Fab Pharma S.A.S., priority 2009, dated 2014).)
